Source: US20200390902A1, “Antibody-Drug Conjugates Targeted at Human Aspartyl-(Asparaginyl)-B-Hydroxylase (HAAH)” (Panacea Pharmaceuticals, Inc., priority 2017, published 2020)
pEC50, pIC50: −log10 of the molar value. “Also recorded” adds a separate entry of the source. Read-outs that look alike come from different tables or passages of the source.

Key:
H460 cells = assay: MTS cell viability assay, H460; assay type: cell-based, human
Procedure: (§1) Human H460 cells were obtained from the American Type Culture Collection (ATCC; Manassas, Va., U.S.A.). The H460 cells were seeded at a density of 5,000 cells/well in 96-well plates and cultured in HG-DMEM (ThermoFisher Scientific, Waltham. Mass., U.S.A.; Catalog No. 11965-092) supplemented with 20 mM HEPES, 4 mM L-glutamine, 1 mM sodium pyruvate, 1× non-essential amino acids, 50 μg/ml gentamicin, and 10% fetal bovine serum (FBS)). Human MOLM-14 cells were obtained from Dr. Ashkan Emadi at University of Maryland (Baltimore. Md., U.S.A.). The MOLM-14 cells were seeded at a density of 5000 cells/well in 96-well plates and cultured in RPMI 1640 with 20% heat-inactivated FBS. The H460 and MOLM-14 cells were treated with naked antibodies or ADCs for 24 hours, starting at the time of cell seeding. By the end of experiment, the cell viability for both cell lines was determined quantitatively using CELL TITER 96 AQUOUS ONE SOLUTION cell proliferation assay, a colorimetric method for determining the number of viable cells (MTS; Promega, Madison. Wis., U.S.A.; Catalog No. G3582).
FIG. 6 depicts the effects of linker and payload on cytotoxicity to cancer cell H460. […] The Log of the antibody concentration in nM is shown on the X axis.
The bioactivities of these SNS622 ADCs were examined using H460 cells. The cells were treated for 48 hours with these SNS622-MC-DM1s, or with SNS622 as control. Cell viability was evaluated at the end of the experiment using an MTS assay.
SNS622-MC-vc-PAB-DM1 and SNS622-MC-MMAE were also synthesized under different initial DAR ratios of 2.5:1, 5:1 and 10:1 at fixed pH8. The 460 cells were treated for 72 hours with ADCs SNS622-MC-vc-PAB-DM1 at with OAR 2.5:1; 5:1; and 10:1, or SNS622-MC-MMAE at with DAR 2.5:1; 5:1; and 10:1. The cell viability and cell death were separately quantified with […] and lactate dehydrogenase (LDH) release assays. FIG. 8A depicts a graph of the MTA quantification results expressed as percentage of untreated control. FIG. 8B depicts a graph of the LDH assay results expressed as percentage of 512 nM DM1-elicited maximal LDH release. The Log of the antibody concentration in nM is shown on the X axis.

[1] = tested on: MIA-PaCa-2 EV-derived tumors; assay: Mouse model inoculated with pancreas cancer cells, MIA-PaCa-2 EV tumors; assay type: in vivo; conditions: 5 mg/kg, 29 days
Procedure: The efficacy and specificity of SNS622-MC-DM1 was first examined in the mouse model with inoculation of pancreas cancer cells. In this model. 5 to 6-week-old female Nod Scid Gamma (NSG) mice (The Jackson Laboratory, Bar Harbor, Me., U.S.A.) were subcutaneously inoculated with 5×10^5 MIA-PaCa-2 EV cells (MIA-PaCa-2 cells transduced with an empty lentivirus vector) in 100 μl buffer solution on one shoulder, and with 5×10^5 MIA-PaCa-2 ASPH cells (MIA-PaCa-2 cells expressing high levels of ASPH) in 100 μl buffer solution on the other shoulder Two weeks post-inoculation, SNS622-MC-DM1 or IgG1-MC-DM1 was injected at 5 mg/kg through a tail vein once a week for 4 weeks. A representation of the schedule used for the ADC treatments is show n in FIG. 13.
The response to treatment with SNS622-MC-DM1 of tumors derived from MIA-PaCa-2 HAAH cells and from MIA-PaCa-2 EV cells were compared in the same mouse.

MOLM-14 cells = assay: MTS cell viability assay, MOLM-14; assay type: cell-based, human; conditions: MOLM-14, 24 hours
Procedure: as §1, with “The H460 cells were seeded at a density of 5,000 cells/well in 96-well plates and cultured in HG-DMEM (ThermoFisher Scientific, Waltham. Mass., U.S.A.; Catalog No. 11965-092) supplemented with 20 mM HEPES, 4 mM L-glutamine, 1 mM sodium pyruvate, 1× non-essential amino acids, 50 μg/ml gentamicin, and 10% fetal bovine serum (FBS)).” left out

[2] = tested on: normal human lung fibroblasts (NHLF); assay: Lactate dehydrogenase (LDH) release assay, NHLF; assay type: cell-based; conditions: 32 nM, 72 hours
Procedure: Both cell lines were cultured in HG-DMEM (ThermoFisher Scientific Catalog No. 11965-092) supplemented with 20 mM HEPES (4-(2-hydroxyethyl)-1-piperazineethanesulfonic acid), 4 mM L-glutamine, 1 mM sodium pyruvate, 1× non-essential amino acids, 50 μg/ml gentamicin and 10% fetal bovine serum (FBS). H460 and NHLF cells were seeded into 96-well plates at 5,000 cells per well, following a 2-day FBS deprivation, and released by culture in complete culture medium containing 10% FBS. […] By 72 hours post treatment, cell death was determined by observing cell morphology using a phase contrast microscope at 150×.
The cell death was also quantified using lactate dehydrogenase (LDH) releasing assay. For the LDH assay, a mixture of a 35 μl aliquot of culture medium and 17.5 μl of substrate, enzyme, and dye solutions (Sigma, St. Louis, Mo., U.S.A.) was incubated at room temperature for 30 minutes, and absorbance was measured at 490 nm using a plate reader (ELx805; BioTek, Winooski, Vt., U.S.A.).

[3] = tested on: pancreatic ductular adenocarcinoma (PDAC) xenograft; assay: Patient-derived xenograft (PDx) model of PDAC, primary tumor growth; assay type: in vivo, mouse; conditions: 2.5 mg/kg i.v., by day 35, vs SNS622 or non-treated control
Source text: Pancreatic ductular adenocarcinoma (PDAC) is a highly lethal malignancy with limited treatment options. HAAH is a cell surface protein that is highly expressed in […] of PDACs. The specificity of SNS622-MC-DM1 was next examined in the patient-derived xenograft (PDx) mouse model PDAC. The patient-derived xenograft (PDx) murine model was established by using surgically resected PDAC (from Rhode Island Hospital, Providence, R.I., U.S.A.). Five to six-week-old female Nod Scid Gamma (NSG) mice were employed. The surgically resected tumor tissue was diced into 5×5×5 mm^3 pieces, and a piece of tumor tissue was subcutaneously transplanted under anesthesia with isoflurane into each mouse via a small incision in the lower back, A buprenorphine analgesic was injected to each mouse for 3 days after surgery. The SNS622 antibody or the SNS622-MC-DM1 ADC was administered at a dose of 2.5 mg/kg by intravenous tail-vein injection every two weeks starting at day 17 post-surgery. Body weight and tumor size were measured twice a week and tumor volume was calculated using the modified ellipsoid formula (0.5×length×width^2). To determine the effect of SNS622-MC-DM1 on lung metastasis, all lung tissues were immersed in Bouin's fixative solution (Sigma-Aldrich, St. Louis, Mo., U.S.A.; catalog No, HT10132) and metastatic nodules on the surface of the lungs were counted. […]

With “SNS622-MC-DM1: SNS622 anti-HAAH monoclonal antibody conjugated to mertansine (DM1) by the non-cleavable linker maleimidocaproyl (MC)” the “Effect on H460 cell viability / growth (MTS)” value (H460 cells; H460, 24 hours) was “decreased the H460 cell viability; also recorded: inhibit in vitro cell growth of both H460 and MOLM-14”, the pEC50 (H460 cells; H460, 24 hours, read-out: EC50, killing of H460 cells (MTS)) was ~7.82 and the pIC50 (H460 cells; H460, 72 hours, reaction DAR 10:1, read-out: IC50 of MTS) was 7.19. The pIC50 (H460 cells; stated for both cancer cell lines (H460 and MOLM-14), read-out: IC50, suppressing cell growth) was 7.82, the “Effect on MIA-PaCa-2 EV tumor growth” value [1] was “grew fast throughout the duration of the experiment; also recorded: much lower effect on tumors derived from MIA-PaCa-2 EV cells” and the “Effect on MOLM-14 cell viability / growth (MTS)” value (MOLM-14 cells) was “inhibit in vitro cell growth of both H460 and MOLM-14; also recorded: greatest suppression in the growth of MOLM-14 cells”. The “Increase in LDH release” value [2] was “did not result in a detectable increase in LDH release” and the PDAC tumor growth [3] was “significantly reduced PDAC tumor growth”.
